US6287553A, “Skin care composition” (Unilever Home & Personal Care USA, division of Conopco, Inc., priority 1998, dated 2001)
“Also recorded” adds a separate entry of the source.

How the values were obtained:
decorin [1] = assay: Decorin synthesis in human dermal fibroblasts (dot blot assay of conditioned medium); format: cell-based; conditions: Fibroblast, 24 h, read-out: upregulation of decorin synthesis
Description: Preparation of Dermal Fibroblast Conditioned Medium Primary human foreskin fibroblasts at passage 2 (P2) were seeded into 12-well plates at 10000 cells/cm^2 and maintained for 24 hours in an atmosphere of 5% carbon dioxide and 4% oxygen in Dulbeccos Modified Eagles Medium (DMEM) supplemented with 10% foetal calf serum. After this time the cells were washed with serum free DMEM and then incubated in fresh serum free DMEM for a further 60 hours. The fibroblast monolayers were then washed again with serum free DMEM. Test reagents and vehicle controls were added to the cells in triplicate in a final volume of 0.4 ml/well fresh serum free DMEM and incubated for a further 24 hours. This fibroblast conditioned medium was either analysed immediately or snap frozen in liquid nitrogen and stored at -70° C. for future analysis. The cells were then counted and data from the dot-blot analysis subsequently standardised to cell number.
Samples of conditioned medium from dermal fibroblasts treated with vehicle (as a control) or test reagents were supplemented with 20 mM dithiothreitol (1:10 dilution of 200 mM stock solution) and 0.1% sodium dodecylsulphate (1:100 dilution of 10% stock solution), mixed well and then incubated at 75° C. for 2 minutes. […]

decorin [2] = assay: Immunohistochemical analysis of decorin expression in photodamaged forearm skin after topical retinoic acid; format: in vivo, human (women)
Description: (§1) Two groups of women were recruited with identical or nearly identical degrees of mild to moderate photodamage on each outer forearm. They were supplied with 0.05% retinoic acid in a moisturising base (Retinova®) and also with a colour matched moisturising cream with similar sensory characteristics (Dermacare® lotion) but no active ingredients as a placebo control. Each participant of the two groups applied the Retinova® to one outer forearm and placebo (Dermacare®) to the other outer forearm. Group 1 applied the products daily to their outer forearms for 14 weeks and the Group 2 applied the products to their outer forearms for 28 weeks. At the end of the studies two full thickness 4 mm punch biopsies were taken from the treated areas of each forearm. Immunohistochemical analysis of the biopsy tissue taken from the participants was performed to identify the effect of retinoic acid treatment on the expression of the skin extracellular matrix components decorin and procollagen-I as compared with the placebo treated forearms. The following procedure was followed:
(§2) Antibody dilution buffer for wax sections was composed of Tris Buffered Saline (TBS), 3% bovine serum albumin (BSA), 0.05% Triton X-100 and 0.05% sodium azide. Primary antibodies for procollagen-I (amino terminal) were obtained from Chemicon International Inc. (cat# MAB 1912, rat IgG1) and used on wax sections at a dilution of 1:800, overnight at 4° C. after the section had been pre-treated trypsin (0.5 mg/ml, 25 minutes, 37° C.). Primary antibodies for decorin were obtained from Biogenesis (rabbit polyclonal) and used on wax sections at a dilution of 1:800, overnight at 4° C. Anti-rat biotinylated secondary antibodies were obtained from DAKO (cat# E0468, rabbit polyclonal) was applied to wax sections at a dilution of 1:400. Anti-rabbit biotinylated secondary antibodies were obtained from Amersham (cat# RPN 1004, donkey polyclonal) was applied to wax sections at a dilution of 1:400. Streptavidin conjugated alkaline phosphatase was obtained from Zymed (cat# 43-4322) and used at a concentration of 1:2500. […]

procollagen-I = assay: Immunohistochemical analysis of procollagen-I expression in photodamaged forearm skin after topical retinoic acid; format: in vivo, human (women)
Description: as §1, §2

skin = conditions: topical treatment of skin; Griffiths et al. 1993; cited from earlier work
keratinocytes = assay: Keratinocyte SDS viability assay (Neutral Red); format: cell-based; conditions: 24 h, read-out: cell viability produced by SDS
Description: Keratinocytes were grown in 96 well plates to approximately 80% confluency in keratinocyte growth medium (KGM) which was then replaced with KGM without hydrocortisone for 24-48 hours. The cells were then treated with a concentration of sodium dodecyl sulphate (SDS) which will produce cell viability of approximately 50% ([…]). The test compounds "c9 t11 CLA" and "t10 c12 CLA" in table 7 are the same as the agents described above in Example 3. […] After incubating for 24 hours the medium was removed and the viability determined by the Neutral Red method. With this method the cells were incubated for 3 hours in KGM containing 25 μg/ml neutral red after which the medium was removed and the cells were then extracted with […] of 1% (v/v) acetic acid, 50% (v/v) ethanol for 30 min units. The absorbance of the extract at 562 nm was determined and the viability evaluated by reference to wells which contained neither SDS nor test compounds.

[3] = Group 1 after 14 weeks, 0.05% retinoic acid (Retinova) daily vs placebo, total 16 participants
[4] = Group 2 after 28 weeks, 0.05% retinoic acid (Retinova) vs placebo, total 15 participants
[5] = topical retinoic acid (Retinova) vs placebo (Dermacare)

Compound | activity at 1 µM (decorin [1]) [%] | No. of Participants showing marked increase in expression of decorin (decorin [2]; [3]) | No. of Participants showing marked increase in expression of decorin (decorin [2]; [4]) | decorin expression in photodamaged skin (decorin [2]; [5]) | No. of Participants showing marked increase in expression of procollagen-I (procollagen-I; [3]) | No. of Participants showing marked increase in expression of procollagen-I (procollagen-I; [4]) | procollagen-I expression in photodamaged skin (procollagen-I; [5]) | wrinkle effacement / dermal repair (skin) | viability at 5 µg/mL (keratinocytes) [%]
CC1=C(/C=C/C(C)=C/C=C/C(C)=C/C(=O)O)C(C)(C)CCC1 [Retinoic acid, retinoic acid] | 138 ± 14 | 10 No. of Participants | 15 No. of Participants | marked upregulation | 9 No. of Participants | 10 No. of Participants | marked upregulation | induces dermal repair of photodamaged skin; also recorded: wrinkle effacement and dermal repair following topical treatment of skin with retinoic acid arises through new collagen deposition and synthesis in the skin | 
CCCCCCCCCCCCOS(=O)(=O)[O-].[Na+] [sodium dodecyl sulphate (SDS), sodium dodecyl sulphate] |  |  |  |  |  |  |  |  | ~50
